Test results taken from BindingDB's records for doi:10.7270/Q2DV1H9K (University of Pittsburgh, 2008).

Molecular target: Cyclin-dependent kinase 7 (Homo sapiens, UniProt P50613)
Experiment: off-target CDK7 activity blockade – biochemical, 57K library addition, counter-screen for PKD inhibitor project, dose response (AID 1380)

Sequence of Cyclin-dependent kinase 7 (P50613 whole entry): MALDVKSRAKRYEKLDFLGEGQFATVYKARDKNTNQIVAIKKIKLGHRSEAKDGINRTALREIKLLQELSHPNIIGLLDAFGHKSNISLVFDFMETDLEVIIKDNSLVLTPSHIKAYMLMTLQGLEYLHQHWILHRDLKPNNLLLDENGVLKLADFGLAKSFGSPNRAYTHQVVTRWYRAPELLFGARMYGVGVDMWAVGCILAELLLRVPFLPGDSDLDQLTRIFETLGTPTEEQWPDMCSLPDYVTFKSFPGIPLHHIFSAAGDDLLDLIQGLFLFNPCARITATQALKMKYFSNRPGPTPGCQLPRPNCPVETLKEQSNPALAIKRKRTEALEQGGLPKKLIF

Compound | IC50
Cc1cc(NC(=O)CCC(=O)N(Cc2ccco2)C(C(=O)NCC2CCCO2)c2ccncc2)no1 (stereo not drawn) [N'-(furan-2-ylmethyl)-N-(5-methyl-1,2-oxazol-3-yl)-N'-[2-oxidanylidene-2-(oxolan-2-ylmethylamino)-1-pyridin-4-yl-ethyl]butanediamide] | > 100 µM
O=C(CSc1ccc2nnc(-c3cccnc3)n2n1)c1ccccc1 [1-phenyl-2-[[3-(3-pyridinyl)-[1,2,4]triazolo[4,3-b]pyridazin-6-yl]thio]ethanone] | > 100 µM
COC(=O)c1c(NC(=O)C2C3CCC(C3)C2C(=O)O)sc2c1CCCCC2 (stereo not drawn) [SMR000298221] | > 100 µM
O=C(O)c1cc(C(=O)C2CCCCC2)c[nH]1 [4-(cyclohexylcarbonyl)-1H-pyrrole-2-carboxylic acid] | > 100 µM
O=[N+]([O-])c1ccc(Nc2c3ccccc3nc3ccccc23)cc1 [MLS000723809] | > 100 µM
COc1ccc(CNC(=O)C2Cc3ccccc3CN2C(=O)c2ccco2)cc1 (stereo not drawn) [SMR000343177] | > 100 µM
COc1ccc(Cn2c(=O)[nH]c3cc(C(=O)NC4CCCC4)ccc3c2=O)cc1 [MLS000730065] | > 100 µM
O=C(NNC1=Nc2cccc3cccc1c23)c1ccc(Br)cc1 [SMR000260645] | > 100 µM
CCOC(=O)c1sc(=NC(=O)CCS(=O)(=O)c2ccccc2)n(C)c1C [2-[3-(benzenesulfonyl)-1-oxopropyl]imino-3,4-dimethyl-5-thiazolecarboxylic acid ethyl ester] | > 100 µM
CC1Cc2ccccc2N1c1ncnc(N)c1[N+](=O)[O-] (stereo not drawn) [6-(2-methyl-2,3-dihydro-1H-indol-1-yl)-5-nitro-4-pyrimidinamine] | 8.22 µM
Cc1c(C#N)c(N)nc(Cl)c1C#N [2-amino-6-chloro-4-methyl-3,5-pyridinedicarbonitrile] | > 100 µM
CSc1ccccc1C(=O)NCc1ccc(F)cc1 | > 100 µM
CCCc1cc(=O)[nH]c(SCCCCN2C(=O)c3ccccc3C2=O)n1 [2-[4-[(4-oxidanylidene-6-propyl-1H-pyrimidin-2-yl)sulfanyl]butyl]isoindole-1,3-dione] | > 100 µM
CC(N=Nc1ncc(Cl)cc1Cl)c1ccccn1 (stereo not drawn) [3,5-dichloro-N-(1-pyridin-2-ylethylideneamino)pyridin-2-amine] | > 100 µM
O=C(Nc1ccccc1C(=O)N1CCCC1)C1COc2ccccc2O1 (stereo not drawn) [SMR000287780] | > 100 µM
O=C(CSc1ccncc1)Nc1ccc2ccccc2c1 [N-naphthalen-2-yl-2-pyridin-4-ylsulfanylacetamide] | > 100 µM
Cn1cccc1C(=O)NC(=O)COC(=O)c1cc(S(=O)(=O)N2CCCCC2)ccc1Cl [[2-[(1-methylpyrrol-2-yl)carbonylamino]-2-oxidanylidene-ethyl] 2-chloranyl-5-piperidin-1-ylsulfonyl-benzoate] | > 100 µM
O=C1CSCN1c1cc(Cl)ccc1Cl [3-(2,5-dichlorophenyl)-1,3-thiazolan-4-one] | > 100 µM
